Results published in patent publication US6143780A, “N-arylmethylthioanilide compounds useful for the inhibition of the replication of HIV” (Uniroyal Chemical Company, Inc., priority 1999, dated 2000).
Converted amounts (≈) assume the structure as drawn. “And” between values parts separate entries of the source, which are not always exact repeats. Equal entries are not always repeated. Where two headings read alike, the source gives them in different places.

Key:
Type in all cases: cell-based
[1] = tested on: HIV-1 (IIIB); test: inhibition of HIV-1(IIIB) (WT) induced syncytium formation in CEM cells
Text: (§1) CEM cells were obtained from the American Tissue Cell Culture Collection (Rockville, Md.) . HIV-1 (IIIB) was originally obtained from the culture supernatant of persistently HIV-1-infected H9 cells and was provided by R. C. Gallo and M. Popovic (National Cancer Institute, National Institutes of Health, Bethesda, Md.).
(§2) CEM cells were suspended at ≈300,000 cells per ml of culture medium and infected with approximately 100 CCID50 (CCID50 being the 50% cell culture infective dose) of HIV-1(IIIB) (designated as "WT" in Table 3) or one of the HIV-1 RT mutant strains described above. Then 100 μl of the infected cell suspensions was added to 200 μl microtiter plate wells containing 100 μl of appropriate serial (5-fold) dilutions of the test compounds. The inhibitiory effect of the test compounds on HIV-1 induced syncytium formation in CEM cells was examined microscopically on day 4 post infection. The 50% effective concentration (EC50) was defined as the test compound concentration that inhibits syncytium formation in the HIV-1-infected cell cultures by 50%.

[2] = tested on: HIV-1/100-Ile; test: inhibition of syncytium formation in CEM cells, HIV-1 RT mutant 100-Ile; conditions: Human immunodeficiency virus 1, CCRF-CEM, 96 h, read-out: EC50 100-Ile
Text: as §1
(§3) The selection and characterization of the HIV-1 RT mutant strains were done as follows: HIV-1/100-Ile ("100-Ile") was selected for resistance against TIBO R82150 as described in Balzarini et al, Virology 192: 246-253 (1993); HIV-1/103-Asn ("103-Asn") was selected for resistance against TIBO R82913 as described in Balzarini et al, Virology 192: 246-253 (1993); HIV-1/106-Ala ("106-Ala") was selected for resistance against nevirapine as described in Balzarini et al, J. Virol. 67: 5353-5359 (1993); HIV-1/Lys-138 ("Lys-138") was selected for resistance against TSAO-m^3T as described in Balzarini et al, Virology 192: 246-253 (1993) and Balzarini et al, Proc. Nat. Acad. Sci. USA 90: 6952-6956 (1993); HIV-1/181-Cys ("181-Cys") was selected for resistance against pyridinone L-697,661 as described in Balzarini et al, Virology 192: 246-253 (1993); and HIV-1/188-His ("188-His") was selected for resistance against HEPT as described in Balzarini et al, Mol. Pharmocol. 44: 694-701 (1993). 188-His was then further converted to HIV-1/188-Leu ("188-Leu") upon further passage in cell culture in the absence of the HEPT. HIV-1/101-Glu ("101-Glu") and HIV-1/190-Glu ("190-Glu") were selected for resistance against the thiocarboxanilide derivative designated as UC38 as described in Balzarini et al, Antiviral Research 27: 219-236 (1995). HIV-1/184-Ile ("184-Ile") was selected for resistance against the combination of 3TC and TSAO-m^3 T as described in Balzarini et al, Molecular Pharm. 49: 882-890 (1996). HIV-1/184-Val ("184-Val") was selected for resistance against 3TC as described in Balzarini et al, Molecular Pharm. 49: 882-890 (1996).
as §2

[3] = tested on: HIV-1/106-Ala; test: inhibition of syncytium formation in CEM cells, HIV-1 RT mutant 106-Ala; conditions: Human immunodeficiency virus 1, CCRF-CEM, 96 h, read-out: EC50 106-Ala
Text: as §1, §3, §2

[4] = tested on: HIV-1/181-Cys; test: inhibition of syncytium formation in CEM cells, HIV-1 RT mutant 181-Cys; conditions: Human immunodeficiency virus 1, CCRF-CEM, 96 h, read-out: EC50 181-Cys
Text: as §1, §3, §2

[5] = tested on: 138-Lys; test: inhibition of syncytium formation in CEM cells, HIV-1 RT mutant 138-Lys; conditions: Human immunodeficiency virus 1, CCRF-CEM, 96 h, read-out: EC50 138-Lys
Text: as §1, §3, §2

[6] = tested on: HIV-1/188-Leu; test: inhibition of syncytium formation in CEM cells, HIV-1 RT mutant 188-Leu; conditions: Human immunodeficiency virus 1, CCRF-CEM, 96 h, read-out: EC50 188-Leu
Text: as §1, §3, §2

[7] = tested on: HIV-1/188-His; test: inhibition of syncytium formation in CEM cells, HIV-1 RT mutant 188-His; conditions: Human immunodeficiency virus 1, CCRF-CEM, 96 h, read-out: EC50 188-His
Text: as §1, §3, §2

[8] = tested on: 103-Ala; test: inhibition of syncytium formation in CEM cells, HIV-1 RT mutant 103-Ala; conditions: Human immunodeficiency virus 1, CCRF-CEM, 96 h, read-out: EC50 103-Ala
[9] = tested on: HIV-1/101-Glu; test: inhibition of syncytium formation in CEM cells, HIV-1 RT mutant 101-Glu; conditions: Human immunodeficiency virus 1, CCRF-CEM, 96 h, read-out: EC50 101-Glu
Text: as §1, §3, §2

[10] = tested on: HIV-1/184-Val; test: inhibition of syncytium formation in CEM cells, HIV-1 RT mutant 184-Val; conditions: Human immunodeficiency virus 1, CCRF-CEM, 96 h, read-out: EC50 184-Val
Text: as §1, §3, §2

[11] = tested on: HIV-1/190-Glu; test: inhibition of syncytium formation in CEM cells, HIV-1 RT mutant 190-Glu; conditions: Human immunodeficiency virus 1, CCRF-CEM, 96 h, read-out: EC50 190-Glu
Text: as §1, §3, §2

[12] = tested on: HIV-1/184-Ile; test: inhibition of syncytium formation in CEM cells, HIV-1 RT mutant 184-Ile; conditions: Human immunodeficiency virus 1, CCRF-CEM, 96 h, read-out: EC50 184-IIe
Text: as §1, §3, §2

[13] = Human immunodeficiency virus 1, IIIB, CCRF-CEM, 96 h, Table 2, day 4 post infection, replicate values, read-out: EC50, Activity Against HIV-1 (IIIB)
[14] = Human immunodeficiency virus 1, IIIB, CCRF-CEM, 96 h, Table 3, HIV-1(IIIB), day 4 post infection, read-out: EC50 WT
[15] = Table 2, day 4 post infection, replicate values, read-out: EC50, Activity Against HIV-1 (IIIB)

SMILES | EC50 [1, 13] [nM] | EC50 [1, 14] [µg/mL] | EC50 [1, 15] | EC50 [2] [µg/mL] | EC50 [3] [µg/mL] | EC50 [4] [µg/mL] | EC50 [5] [µg/mL] | EC50 [6] [µg/mL] | EC50 [7] [µg/mL] | EC50 [8] [µg/mL] | EC50 [9] [µg/mL] | EC50 [10] [µg/mL] | EC50 [11] [µg/mL] | EC50 [12] [µg/mL]
COc1ccccc1OCc1cc(NC(=S)c2ccoc2C)ccc1Cl [Compound 22] | 160 | 0.011 | 209 nM | 0.4 | 1 | 0.41 | 0.075 | > 2 | 0.85 | 2.73 (≈ 7.04 µM) | 0.75 | 0.018 | > 2 | 0.025
Cc1occc1C(=S)Nc1ccc(Cl)c(COc2ccccc2F)c1 [Compound 18] | 117 | 0.0053 | 111 nM | 0.077 | 1.1 | 0.1 | 0.53 | > 2 | 1.73 | > 2 | 0.24 | 0.008 | > 2 | 0.032
Cc1ccc(Cl)c(OCc2cc(NC(=S)c3ccoc3C)ccc2Cl)c1 [Compound 37] | – | 0.025 | 19.2 nM and 76.6 nM | 2.33 | > 2 | > 2 | 0.33 | 0.62 | 0.33 | > 2 | 1.4 | 0.09 | > 2 | 0.14
COc1cccc(F)c1OCc1cc(NC(=S)c2ccoc2C)ccc1Cl [Compound 34] | – | 0.0022 | 5.65 nM and 17.4 nM | 0.16 | 0.1 | 0.1 | 0.02 | 0.53 | 0.5 | 0.85 (≈ 2.09 µM) | 0.12 | 0.005 | > 2 | 0.0087
Cc1occc1C(=S)Nc1ccc(Cl)c(COc2ccccc2C(F)(F)F)c1 [Compound 46] | – | 0.0041 | 39.3 nM and 54.8 nM and 9.14 nM | 0.11 | 0.47 | 0.5 | 0.03 | 0.19 | 0.16 | 0.55 (≈ 1.29 µM) | 0.18 | 0.0093 | > 2 | 0.018
Cc1occc1C(=S)Nc1ccc(Cl)c(COc2ccccc2C#N)c1 [Compound 30] | 63.5 | 0.006 | 68.7 nM and 103 nM | 0.33 | 0.7 | 0.65 | 0.042 | 0.85 | 0.35 | > 2 | 0.63 | 0.021 | > 2 | 0.03
CCCc1ccccc1OCc1cc(NC(=S)c2ccoc2C)ccc1Cl [Compound 43] | – | 0.03 | 42.5 nM and 118 nM | 1.14 | > 2 | > 0.4 | 0.31 | > 2 | 0.65 | > 2 | 1.35 | 0.04 | > 2 | 0.13
Cc1occc1C(=S)Nc1ccc(Cl)c(COc2cccc(C(F)(F)F)c2)c1 [Compound 5] | 3880 | 0.5 | 4110 nM and 3840 nM | > 2 | – | 0.33 | 1.73 | – | > 2 | > 2 | > 2 | 0.93 | > 2 | > 2
Cc1occc1C(=S)Nc1ccc(Cl)c(COc2cccc(Cl)c2)c1 [Compound 7] | – | 0.09 | 68.2 nM and 52.5 nM and 432 nM | 0.65 | – | 0.44 | 0.33 | – | 0.95 | ≥ 2 | 2 | 0.1 | ≥ 10 | 0.4
Cc1occc1C(=S)Nc1ccc(Cl)c(COc2ccccc2Cl)c1 [Compound 6, N-3-((2-chlorophenoxy)methyl)-4-chlorophenyl-2-methyl-3-furancarbothioamide] | 58.6 | 0.0067 | 104 nM | 0.23 | – | 0.09 | 0.025 | – | 0.053 | 1.2 (≈ 3.06 µM) | 0.11 | 0.018 | > 2 | 0.047
